No end group written: not given here.
Key:
Assay type in all cases: cell-based, human
[1] = tested on: HeLa cells; test: Cellular uptake by flow cytometry in HeLa cells; conditions: 1 and 10 µM CF-labeled peptide, 30 min, 37 °C, serum-free medium, triplicate n = 3
Experimental: Monolayer cellular uptake was quantified using flow cytometry. Cells were seeded onto a 24-well plate (HeLa: 90,000, HEK293: 100,000 and MCF-7 130,000 cells per well) and grown to 80–90% confluency. Then, cells were incubated with the labeled peptides/conjugates in a serum-free medium at 37 °C for various incubation times, and subsequently washed twice with PBS and detached with indicator-free trypsin resuspended in an indicator-free serum-containing medium. The cell suspension was transferred into a 96-well FACS plate and fluorescence was then measured by a Guava easyCyte flow cytometer (Merck, Darmstadt, Germany).The blue laser was used for all measurements, FSC (1137–1538), SSC (3020–4086), Grn-B (647–875) and Red-B (694–939). Cellular autofluorescence of untreated control cells was subtracted.

[2] = tested on: HEK-293 spheroids; test: Flow cytometry of HEK-293 spheroids; conditions: 10 µM CF-labeled peptides, 30 min or 1 h
Experimental: For the preparation and seeding of spheroids, cells were washed and trypsinized as described above. Cells were transferred into a fresh 15 mL centrifuge tube and centrifuged for 5 min at 300× g and rt. The supernatant was removed carefully and the pellet was resuspended in an appropriate medium supplemented with FBS. Cells were counted and a cell mixture was prepared, which would be sufficient for 100 drops (3 mL). Within this mixture a total amount of 1.5 × 10^6 cells (HEK-293 and HeLa cells) and 20% (v/v) methylcellulose (1.2 mg/mL) were required. The missing volume was filled up with an appropriate medium containing FBS; 30 μL drops were pipetted into the inverted lid of a petri dish (15,000 cells per drop), the bottom was covered with PBS and spheroids were grown in hanging drops for two or three days at 37 °C and 5% CO2, respectively.
For flow cytometry studies with tumor spheroids, the spheroids were prepared and grown as described above (4.7). […] After the spheroids started to fall apart, 850 μL of medium with FBS (indicator free) was added and the spheroids were resuspended to generate a homogenous cell suspension; 200 μL of each sample were transferred into a fresh round-bottom 96-well plate and analyzed on a Guava® easyCyte flow cytometer (Merck, Darmstadt, Germany). […]

[3] = tested on: HeLa cells; test: Fluorescence microscopy of intracellular distribution in HeLa cells; conditions: 10 µM CF-labeled peptide, 30 min, confocal fluorescence microscopy
Experimental: Cells were seeded into 8-well plates (HeLa cells 35,000 and HFF-1 25,000 cells per well, respectively) and grown to 80–90% confluency. Cells were treated with 10 μM CF- or dox-labeled peptides in a serum-free medium for 30 min at 37 °C. Ten minutes prior to the end of the incubation time, nuclei were stained with Hoechst33342. The peptide solution was removed, and cells were washed five times with PBS and covered with fresh medium including FBS. Microscopic analysis was performed using an inverse confocal TCS SP8 microscope (Leica Microsystems, Wetzlar, Germany), equipped with a 63× oil-immersion objective. Images were recorded with LAS X software (LAS_X_Core_3.7.6_25997, Leica Microsystems, Wetzlar, Germany). For the GUV analysis and the uptake of the peptide-drug conjugates the Keyence fluorescence tabletop microscope BZ-X800E (Keyence, Osaka, Japan), with a 60× oil immersion lens was used. Images were recorded with Keyence software (BZ-800X_Analyzer 1.1.1.8, Keyence, Osaka: Japan) and evaluated with Fiji.
Figure 6 Fluorescence microscope analysis of 5 µM conjugates after 30 min of incubation at 37 °C in HeLa and HFF-1 cells. Red: peptides coupled to red fluorophore Doxorubicin; blue: Hoechst 33342 nuclear stain; BF: brightfield to identify living cells; scale bar is 20 µm.

[4] = tested on: HEK293 cells; test: Cytotoxicity (resazurin) assay in HEK293 cells; conditions: 24 h
Experimental: For cell viability assay, cells were (15,000 HeLa, 17,000 MCF-7 and 12,000 HFF-1 cells per well) seeded onto a 96-well plate and grown to 80–90% confluency. Cells were incubated with several peptide concentrations in a serum-free growth medium for 24 h under standard growth conditions. For the positive control, cells were treated with 70% EtOH for 7 min. After washing with DPBS, resazurin solution (10% in serum-free media, v/v) was incubated with the cells for 1 h under standard growth conditions. The cell viability was determined relative to untreated cells by measurement of the resorufin product at 595 nm (λex = 550 nm) on a Tecan infinite M200 plate reader (Tecan Group AG, Männedorf, Switzerland).
Cells were cultured and incubated at pH 7.4 for 24 h with different concentrations of peptide solutions. Untreated cells served as negative control; cells treated with 70% ethanol as positive control. Values from the positive control were subtracted from all data, and the untreated cells were set to 100%; assays were performed with n = 3 in triplicate.

Question: For RLRKLLRKFLRK-NH2 [sC18*^R,L], which “cellular uptake” value [1] is on record?
Answer: Its value is “highly significant and enhanced internalization”.

Question: And the “accumulation in spheroids” value [2]?
Answer: Its value is “most efficient variants”.

Question: What about the “intracellular accumulation / uptake pattern” value [3] of the same substance?
Answer: Its value is “highly enriched all over the cytosol including uptake in the nuclei”.

Question: And the “concentration at which toxic effect started” value [4]?
Answer: Its value is 50 µM.
